# Measured values as given in patent US20220332764A1, “T CELL EPITOPES OF HCMV AND USES OF THEREOF” (EBERHARD KARLS UNIVERSITÄT TÜBINGEN, priority 2019, published 2022).
# Where “and” joins values, the source holds several entries; their conditions need not be identical. Identical values can stand only once. Like-named read-outs stand apart in the source and are kept apart here.
# Experiments:
# [1] = test system: PBMCs of healthy HCMV-seropositive donors; assay: ex vivo IFNγ ELISpot without prestimulation; format: cell-based, human; conditions: for % Positive donors (ex vivo): IFNγ ELISpot ex vivo, donors previously tested positive; for ELISpot response rate (ex vivo): donors positively tested in ELISpots with 12d stimulation
# From the text: (§1) PHA was used as positive control.
# [2] = test system: CD8+ / CD4+ T cells of donor PBMCs; assay: Intracellular cytokine staining (ICS; IFNγ, TNFα, CD107a); format: cell-based, human; conditions: for Intracellular staining: responding T-cell subset; for Intracellular cytokine staining: responding T-cell subset after peptide stimulation
# From the text: PHA was used as positive control. […] (Cytofix/Cytoperm, BD Biosciences).
# [3] = test system: PBMCs of healthy HCMV-seropositive donors; assay: IFNγ ELISpot after 12 day stimulation (memory T-cell response); format: cell-based, human; conditions: for % Positive donors (after 12 days of stimulation): IFNγ ELISpot, HLA-matched seropositive donors; for ELISpot response rate (12 d stim.): 12-day amplification with IL-2 in vitro; for Positive donors as tested: positive / tested HLA-matched seropositive donors, positive: >10 spots/well and at least 3-fold negative control
# From the text: as §1
# [4] = test system: CD8+ T cells of HLA-matched healthy donors; conditions: for Tetramer-staining: after 12 day amplification
Sequence,% Positive donors (after 12 days of stimulation) [3],Positive donors as tested [3],further results
ALWDVALLEV (listed as Human cytomegalovirus) [SEQ ID NO: 2],71.4%,10/14,% Positive donors (ex vivo) [1]: 25.0%; ELISpot response rate (ex vivo) ([1]; Tested HLA A*02:01): 25.0; Intracellular staining ([2]; Tested HLA A*02:01): CD8; Intracellular cytokine staining [2]: CD8; ELISpot response rate (12 d stim.) ([3]; Tested HLA A*02:01): 71.4; Tetramer staining ([4]; Tested HLA A*02:01): positive; Tetramer-staining [4]: Positive
DARSRIHNV (listed as Human cytomegalovirus) [SEQ ID NO: 89],53.3%,8/15,ELISpot response rate (ex vivo) ([1]; Tested HLA B*51:01): 20.0; Intracellular staining ([2]; Tested HLA B*51:01): CD8; Intracellular cytokine staining [2]: CD8; ELISpot response rate (12 d stim.) ([3]; Tested HLA B*51:01): 53.3; Tetramer staining ([4]; Tested HLA B*51:01): positive; Tetramer-staining [4]: Positive
DEQVSKRSW (listed as Human cytomegalovirus) [SEQ ID NO: 42],45.8%,11/24,% Positive donors (ex vivo) [1]: 12.5%; Intracellular cytokine staining [2]: CD8; Tetramer-staining [4]: Positive
FLDENFKQL (listed as Human cytomegalovirus) [SEQ ID NO: 5],47.6%,10/21,% Positive donors (ex vivo) [1]: 37.5%; Intracellular cytokine staining [2]: CD4; Tetramer-staining [4]: Negative
FPVEVRSHV (listed as Human cytomegalovirus) [SEQ ID NO: 88],65.2%,15/23,% Positive donors (ex vivo) [1]: 0.0%; ELISpot response rate (ex vivo) ([1]; Tested HLA B*51:01): 0.0; Intracellular staining ([2]; Tested HLA B*51:01): CD8; Intracellular cytokine staining [2]: CD8; ELISpot response rate (12 d stim.) ([3]; Tested HLA B*51:01): 65.2; Tetramer staining ([4]; Tested HLA B*51:01): positive; Tetramer-staining [4]: Positive
GLLAHIPALGV (listed as Human cytomegalovirus) [SEQ ID NO: 8],27.3%,6/22,% Positive donors (ex vivo) [1]: 0.0%
KLGYRPHAK (listed as Human cytomegalovirus) [SEQ ID NO: 71],37.9%,11/29,Intracellular cytokine staining [2]: CD8; Tetramer-staining [4]: Positive
RLFDLPVYC (listed as Human cytomegalovirus) [SEQ ID NO: 6],41.7%,5/12,
RLQPNVPLV (listed as Human cytomegalovirus) [SEQ ID NO: 7],33.3%,6/18,% Positive donors (ex vivo) [1]: 0.0%
RPFPSTHQL (listed as Human cytomegalovirus) [SEQ ID NO: 31],30.8%,4/13,% Positive donors (ex vivo) [1]: 0.0%
RSALGPFVGK (listed as Human cytomegalovirus) [SEQ ID NO: 69],40.0%,6/15,Intracellular cytokine staining [2]: CD8; Tetramer-staining [4]: Positive
RSVRLPYMYK (listed as Human cytomegalovirus) [SEQ ID NO: 78],13.3%,2/15,
RTFAGTLSR (listed as Human cytomegalovirus) [SEQ ID NO: 76],21.4%,3/14,
RVDPNLRNR (listed as Human cytomegalovirus) [SEQ ID NO: 74],33.3%,5/15,
RVSQPSLIL (listed as Human cytomegalovirus) [SEQ ID NO: 32],26.7%,4/15,
RVYAYDTREK (listed as Human cytomegalovirus) [SEQ ID NO: 72],36.4%,4/11,
SESLVAKRY (listed as Human cytomegalovirus) [SEQ ID NO: 48],10.0%,1/10,

Sequence,% Positive donors (after 12 days of stimulation) [3],Positive donors as tested [3],further results
SFFPKLQGNY (listed as Human cytomegalovirus) [SEQ ID NO: 22],22.2%,2/9,
SLDRFIVQY (listed as Human cytomegalovirus) [SEQ ID NO: 57],35.7%,5/14,Intracellular cytokine staining [2]: CD4
SLFYRAVAL (listed as Human cytomegalovirus) [SEQ ID NO: 98],,5/13 and 4/22,% Positive donors (ex vivo) [1]: 12.5%; Binding to more than one HLA-I allotype ([3]; stimulated T cells of different donors harboring either of two well predicted alleles): potentially able to bind to more than one HLA-I allotype
SLYEANPEL (listed as Human cytomegalovirus) [SEQ ID NO: 10],23.5%,4/17,
SPHPPTSVFL (listed as Human cytomegalovirus) [SEQ ID NO: 33],25.0%,3/12,
SVRLPYMYK (listed as Human cytomegalovirus) [SEQ ID NO: 75],25.0%,4/16,
SVSSAPLNK (listed as Human cytomegalovirus) [SEQ ID NO: 79],7.1%,1/14,
TILDKILNV (listed as Human cytomegalovirus) [SEQ ID NO: 11],20.0%,4/20,
TLINGVWVV (listed as Human cytomegalovirus) [SEQ ID NO: 12],,2/11,
TPLLKRLPL (listed as Human cytomegalovirus) [SEQ ID NO: 82],28.6%,4/14,
TSETHFGNY (listed as Human cytomegalovirus) [SEQ ID NO: 59],20.0%,3/15,
VMKFKETSF (listed as Human cytomegalovirus) [SEQ ID NO: 81],,5/13,
VPAAVYTTV (listed as Human cytomegalovirus) [SEQ ID NO: 93],33.3%,5/15,
VTDPEHLMM (listed as Human cytomegalovirus) [SEQ ID NO: 64],14.3%,2/14,
VTDYGNVAFKY (listed as Human cytomegalovirus) [SEQ ID NO: 61],18.8%,3/16,
YSDRRDHVWSY (listed as Human cytomegalovirus) [SEQ ID NO: 66],6.3%,1/16,
YTSRGALYLY (listed as Human cytomegalovirus) [SEQ ID NO: 58],21.4%,3/14,
